# Measurements: ChEMBL document CHEMBL2074292, “Isolation, characterization and differential gene expression of multispecific organic anion transporter 2 in mice” (Mol Pharmacol, 2002)
# T1: Solute carrier family 22 member 7 (Mus musculus, UniProt Q91WU2)
# T1 sequence (Q91WU2 whole entry): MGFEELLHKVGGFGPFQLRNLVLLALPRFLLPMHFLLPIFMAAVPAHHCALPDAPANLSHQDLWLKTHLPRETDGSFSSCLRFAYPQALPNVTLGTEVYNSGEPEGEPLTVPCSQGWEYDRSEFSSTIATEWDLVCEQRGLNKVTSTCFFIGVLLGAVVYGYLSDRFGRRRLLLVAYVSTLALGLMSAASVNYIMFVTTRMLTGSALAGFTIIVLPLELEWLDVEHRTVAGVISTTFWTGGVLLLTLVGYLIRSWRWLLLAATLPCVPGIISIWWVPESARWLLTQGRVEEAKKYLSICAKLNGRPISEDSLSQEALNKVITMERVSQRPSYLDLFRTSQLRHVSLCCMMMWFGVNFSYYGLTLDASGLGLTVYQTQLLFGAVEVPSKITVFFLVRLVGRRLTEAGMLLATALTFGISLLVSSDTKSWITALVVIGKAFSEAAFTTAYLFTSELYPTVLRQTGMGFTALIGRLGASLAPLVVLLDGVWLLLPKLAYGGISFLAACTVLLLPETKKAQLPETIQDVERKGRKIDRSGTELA
# B1: Solute carrier family 22 member 7 (Mus musculus) (protein)
# chain: T1 sequence (Q91WU2 whole entry)
# Columns and labels:
# [1] = biological target: T1, Solute carrier family 22 member 7; experiment: (§1) TP_TRANSPORTER: uptake in Xenopus laevis oocytes; format: functional, cell-based; settings: oocyte
# [2] = biological target: T1, Solute carrier family 22 member 7; experiment: TP_TRANSPORTER: inhibition of Glutarate uptake (Glutarate: 5 uM, Cefoperazone: 1000 uM) in Xenopus laevis oocytes; format: functional, cell-based; settings: oocyte
# [3] = biological target: T1, Solute carrier family 22 member 7; experiment: TP_TRANSPORTER: inhibition of Glutarate uptake (Glutarate: 5 uM, Enalapril: 1000 uM) in Xenopus laevis oocytes; format: functional, cell-based; settings: oocyte
# [4] = biological target: T1, Solute carrier family 22 member 7; experiment: TP_TRANSPORTER: inhibition of Glutarate uptake (Glutarate: 5 uM, Erythromycin: 1000 uM) in Xenopus laevis oocytes; format: functional, cell-based; settings: oocyte
# [5] = biological target: T1, Solute carrier family 22 member 7; experiment: TP_TRANSPORTER: inhibition of Glutarate uptake (Glutarate: 5 uM, ICG: 1000 uM) in Xenopus laevis oocytes; format: functional, cell-based; settings: oocyte
# [6] = biological target: T1, Solute carrier family 22 member 7; experiment: TP_TRANSPORTER: inhibition of Glutarate uptake (Glutarate: 5 uM, Oxaloacetate: 1000 uM) in Xenopus laevis oocytes; format: functional, cell-based; settings: oocyte
# [7] = biological target: T1, Solute carrier family 22 member 7; experiment: TP_TRANSPORTER: inhibition of Glutarate uptake (Glutarate: 5 uM, BSP: 250 uM) in Xenopus laevis oocytes; format: functional, cell-based; settings: oocyte
# [8] = substrate: O=C(O)CCCC(=O)O; experiment: as §1; format: functional, cell-based, Oocyte
# [9] = substrate: CCCCC[C@H](O)/C=C/[C@H]1[C@H](O)CC(=O)[C@@H]1C/C=C\CCCC(=O)O; experiment: as §1; format: functional, cell-based, Oocyte
molecule,measurement,setting,value
C[C@@H]1Cc2c(Cl)cc(C(=O)N[C@@H](Cc3ccccc3)C(=O)O)c(O)c2C(=O)O1 [3R14S-OCHRATOXIN A],Activity,[1],substrate [+]
Oc1ncnc2[nH]ncc12 [ALLOPURINOL],Activity,[1],substrate [+]
O=C(O)CCC(=O)C(=O)O [ALPHA-KETOGLUTARIC ACID],Activity,[1],substrate [+]
Nc1ccc(C(=O)NCC(=O)O)cc1 [AMINOHIPPURIC ACID],Activity,[1],substrate [+]
CCN1CCN(C(=O)N[C@@H](C(=O)N[C@@H]2C(=O)N3C(C(=O)O)=C(CSc4nnnn4C)CS[C@H]23)c2ccc(O)cc2)C(=O)C1=O [CEFOPERAZONE],Activity,[2],inhibitor [(at a rough estimate) 40 % of control]
CCOC(=O)[C@H](CCc1ccccc1)N[C@@H](C)C(=O)N1CCC[C@H]1C(=O)O [ENALAPRIL],Activity,[3],inhibitor [(at a rough estimate) 30 % of control]
CC[C@H]1OC(=O)[C@H](C)[C@@H](O[C@H]2C[C@@](C)(OC)[C@@H](O)[C@H](C)O2)[C@H](C)[C@@H](O[C@@H]2O[C@H](C)C[C@H](N(C)C)[C@H]2O)[C@](C)(O)C[C@@H](C)C(=O)[C@H](C)[C@@H](O)[C@]1(C)O [ERYTHROMYCIN],Activity,[4],inhibitor [(at a rough estimate) 20 % of control]
CC1(C)C(/C=C/C=C/C=C/C=C2/N(CCCCS(=O)(=O)[O-])c3ccc4ccccc4c3C2(C)C)=[N+](CCCCS(=O)(=O)[O-])c2ccc3ccccc3c21.[Na+] [INDOCYANINE GREEN],Activity,[5],inhibitor [(at a rough estimate) 30 % of control]
O=C(O)CC(=O)C(=O)O [OXALOACETATE],Activity,[6],inhibitor [(at a rough estimate) 45 % of control]
O=C(O)c1ccccc1O [SALICYLIC ACID],Activity,[1],is not a substrate [-]
O=C1OC(c2ccc(O)c(S(=O)(=O)[O-])c2)(c2ccc(O)c(S(=O)(=O)[O-])c2)c2c(Br)c(Br)c(Br)c(Br)c21.[Na+].[Na+] [SULFOBROMOPHTHALEIN SODIUM],Activity,[7],inhibitor [(at a rough estimate) 25 % of control]
CCCC(CCC)C(=O)O [VALPROIC ACID],Activity,[1],substrate [+]
B1,Km,[8],15.8 µM
same,Km,[9],0.0052 µM
